Experiments:
NIH3T3 cells = experiment: Adipocyte differentiation and fat content by Oil Red O staining, NIH3T3 cells; format: cell-based
Protocol: To obtain evidence that resveratrol affects fat metabolism in a physiologically relevant cell, we examined the effect of increasing concentrations of resveratrol on 3T3-L1 and NIH3T3 cell differentiation and fat content. 3T3-L1 or NIH3T3 cells were grown to confluence and allowed to pack in for 2 days at which point differentiation was initiated by addition of isobutylmethylxanthine, dexamethasone and insulin in the presence of vehicle (ethanol alone) or resveratrol at concentrations of 0, 12.5 and 25 μM. After 10 days of differentiation, fat content was assessed by Oil Red O staining, as described below. The results, which are shown in FIG. 12, indicate that concentrations of 25 μM or higher resveratrol decreased the quantity of cellular fat in 3T3-L1 and NIH3T3 cells. The results in NIH3T3 cells confirm the results obtained in C. elegans.
To further examine whether resveratrol activation of sir2 could promote fat mobilization or inhibition of differentiation in mammalian cells, we infected growing cells with wild-type SIRT1 or a deacetylase deficient form of SIRT1. […]
3T3-L1 and NIH3T3 cells were maintained in DMEM plus 10% calf serum. […] The staining of adipocytes with Oil Red-O and quantitation was performed as described previously (Ramirez-Zacarias J L, Castro-Munozledo F, Kuri-Harcuch W. Histochemistry. 1992 July; 97(6):493-7). […]

[1] = system: TNF-alpha treated adipocytes; experiment: Radioactive glucose uptake in TNF-alpha treated, insulin resistant adipocytes; format: cell-based; settings: resveratrol 5 μM or 15 μM; roziglitazone 4 μM (positive control); with TNF-alpha
Protocol: Adipocytes were treated with TNF-alpha to induce insulin resistance as described in Kabayama et al., Glycobiology 15:21-29 (2005) and Wu et al., Mol. Cell 3:151-8 (1999).

Oc1ccc(/C=C/c2cc(O)cc(O)c2)cc1 [resveratrol, 3,5,4′-Trihydroxy-trans-stilbene]
concentrations that decreased the quantity of cellular fat (NIH3T3 cells; 10 days of differentiation, 0, 12.5 and 25 μM tested, Oil Red O): ≥ 25 µM
decrease in fat content (NIH3T3 cells; cells expressing SIRT1 deacetylase deficient mutant (SIRT1ΔHY), 0, 12.5 or 25 μM, eight days): partially reduced
radioactive glucose uptake / insulin sensitivity [1]: partially rescued the TNF-alpha treated adipocytes restoring insulin sensitivity
